Test results reported in ChEMBL document CHEMBL4364300, “Boron in drug design: Recent advances in the development of new therapeutic agents” (Eur J Med Chem, 2019).
Values after ≈ are worked out from the molar mass of the structure shown.

Experiments:
Plasmodium falciparum [1] = assay: Antimalarial activity against Plasmodium falciparum AN3661 derived from malaria patient; assay type: functional
Plasmodium falciparum [2] = assay: Antimalarial activity against Plasmodium falciparum FCR-3 after 48 hrs by [3H]-hypoxanthine incorporation assay; assay type: functional, organism-based; conditions: FCR-3/Gambia
Plasmodium falciparum [3] = assay: Antimalarial activity against Plasmodium falciparum HB3 after 48 hrs by [3H]-hypoxanthine incorporation assay; assay type: functional, organism-based
Plasmodium berghei = assay: Antimalarial activity against Plasmodium berghei […]; assay type: functional
Plasmodium falciparum [4] = assay: Antimalarial activity against Plasmodium falciparum Dd2 after 48 hrs by [3H]-hypoxanthine incorporation assay; assay type: functional, organism-based
Plasmodium falciparum [5] = assay: Antimalarial activity against Plasmodium falciparum K1 after 48 hrs by [3H]-hypoxanthine incorporation assay; assay type: functional, organism-based
Plasmodium falciparum [6] = assay: Antimalarial activity against Plasmodium falciparum W2 after 48 hrs by [3H]-hypoxanthine incorporation assay; assay type: functional, organism-based
Plasmodium falciparum [7] = assay: Antimalarial activity against Plasmodium falciparum Ugandan field isolates after 48 hrs by [3H]-hypoxanthine incorporation assay; assay type: functional, organism-based
Plasmodium falciparum [8] = assay: Antimalarial activity against Plasmodium falciparum 3D7 after 48 hrs by [3H]-hypoxanthine incorporation assay; assay type: functional, organism-based
Plasmodium falciparum [9] = assay: Antimalarial activity against Plasmodium falciparum TM90C2B after 48 hrs by [3H]-hypoxanthine incorporation assay; assay type: functional, organism-based
HCT-116 = assay: Antiproliferative activity against human HCT116 cells by MTT assay; assay type: functional, cell-based
SK-OV-3 = assay: Antiproliferative activity against human SKOV3 cells by MTT assay; assay type: functional, cell-based
MDA-MB-231 [10] = assay: Antiproliferative activity against human MDA-MB-231 cells by MTT assay; assay type: functional, cell-based
[11] = Inhibition of bacterial beta lactamase AmpC; set-up: species or system Bacteria
[12] = Inhibition of bacterial beta lactamase CTX-M-9; set-up: species or system Bacteria
[13] = molecular target: 3',5'-cyclic-AMP phosphodiesterase 4B (Homo sapiens, UniProt Q07343); assay: Inhibition of […] human recombinant PDE4B catalytic domain (152 to 484 residues)
Chain of 3',5'-cyclic-AMP phosphodiesterase 4B (Q07343 whole entry, the tested form may be a part): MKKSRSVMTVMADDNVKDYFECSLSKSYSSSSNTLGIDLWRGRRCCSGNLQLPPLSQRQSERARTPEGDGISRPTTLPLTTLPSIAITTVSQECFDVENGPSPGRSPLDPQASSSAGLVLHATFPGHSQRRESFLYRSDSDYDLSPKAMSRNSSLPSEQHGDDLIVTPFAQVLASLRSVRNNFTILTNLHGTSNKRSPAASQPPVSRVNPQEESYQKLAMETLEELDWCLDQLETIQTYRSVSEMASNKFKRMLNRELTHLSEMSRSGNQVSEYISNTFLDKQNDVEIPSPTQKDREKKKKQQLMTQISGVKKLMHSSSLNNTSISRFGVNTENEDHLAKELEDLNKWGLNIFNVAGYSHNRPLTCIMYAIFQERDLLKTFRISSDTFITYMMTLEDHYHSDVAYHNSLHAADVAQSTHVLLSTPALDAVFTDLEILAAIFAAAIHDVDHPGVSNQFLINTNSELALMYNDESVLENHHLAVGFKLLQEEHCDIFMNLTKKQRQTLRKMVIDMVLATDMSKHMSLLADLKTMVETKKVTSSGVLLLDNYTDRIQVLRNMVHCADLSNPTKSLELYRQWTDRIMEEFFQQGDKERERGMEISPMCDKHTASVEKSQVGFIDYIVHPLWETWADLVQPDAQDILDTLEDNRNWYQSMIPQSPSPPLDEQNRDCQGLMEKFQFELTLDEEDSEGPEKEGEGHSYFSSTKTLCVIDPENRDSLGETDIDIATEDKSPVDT

Leishmania tropica [14] = assay: Antileishmanial activity Leishmania tropica MHOM/IR/2013/HTD4 after 72 hrs by giemsa staining based light microscopic analysis; assay type: functional, organism-based; conditions: MHOM/IR/2013/HTD4, 72 h
Leishmania aethiopica = assay: Antileishmanial activity Leishmania aethiopica MHOM/ET/84/KH after 72 hrs by giemsa staining based light microscopic analysis; assay type: functional, organism-based
Leishmania panamensis = assay: Antileishmanial activity Leishmania panamensis MHOM/PA/67/BOYNTON after 72 hrs by giemsa staining based light microscopic analysis; assay type: functional, organism-based
Leishmania major = assay: Antileishmanial activity Leishmania major MHOM/SA/85/JISH118 after 72 hrs by giemsa staining based light microscopic analysis; assay type: functional, organism-based; conditions: MHOM/SA/85/JISH118, 72 h
Leishmania mexicana = assay: Antileishmanial activity Leishmania mexicana MNYC/BZ/62/M379 after 72 hrs by giemsa staining based light microscopic analysis; assay type: functional, organism-based; conditions: MNYC/BZ/62/M379, 72 h
Leishmania tropica [15] = assay: Antileishmanial activity Leishmania tropica AO21/p after 72 hrs by giemsa staining based light microscopic analysis; assay type: functional, organism-based
[16] = molecular target: Proteasome Macropain subunit MB1 (Homo sapiens, UniProt P28074); assay: Inhibition of human chymotrypsin-like activity of 20S proteasome (unknown origin)
Chain of Proteasome Macropain subunit MB1 (P28074 whole entry): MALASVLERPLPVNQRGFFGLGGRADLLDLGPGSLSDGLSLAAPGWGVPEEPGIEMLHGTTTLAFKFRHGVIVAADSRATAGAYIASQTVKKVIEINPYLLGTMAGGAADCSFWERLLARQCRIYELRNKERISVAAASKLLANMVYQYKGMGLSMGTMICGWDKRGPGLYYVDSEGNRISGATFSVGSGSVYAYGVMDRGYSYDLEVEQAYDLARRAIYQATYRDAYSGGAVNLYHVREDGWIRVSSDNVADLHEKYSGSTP

MDA-MB-231 [17] = assay: Antiproliferative activity against human MDA-MB-231 cells after 72 hrs; assay type: functional, cell-based; conditions: MDA-MB-231, 72 h
[18] = Inhibition of bacterial beta lactamase NDM-1; set-up: species or system Bacteria
[19] = Inhibition of bacterial beta lactamase VIM-2; set-up: species or system Bacteria
[20] = Inhibition of bacterial beta lactamase KPC-2; set-up: species or system Bacteria
[21] = Inhibition of bacterial beta lactamase CTX-M-15; set-up: species or system Bacteria
GH3 = assay: Cytotoxicity against rat GH3 cells; assay type: functional, cell-based
A2780 = assay: Antiproliferative activity against human A2780 cells by MTT assay; assay type: functional, cell-based
HepG2 = assay: Antiproliferative activity against human HepG2 cells by MTT assay; assay type: functional, cell-based
Hep 3B2 = assay: Antiproliferative activity against human Hep3B cells by MTT assay; assay type: functional, cell-based
[22] = Inhibition of bacterial beta lactamase KPC-2 after 5 mins; set-up: species or system Bacteria
[23] = Inhibition of Enterobacter cloacae beta lactamase P99 after 5 mins
[24] = Inhibition of bacterial beta lactamase OXA-24 after 5 mins; set-up: species or system Bacteria
[25] = Inhibition of Pseudomonas aeruginosa beta lactamase AmpC after 5 mins
Beta-lactamase TEM = Beta-lactamase TEM (Bacteria, UniProt P62593); assay: Inhibition of bacterial beta lactamase TEM-1 after 5 mins
Chain of Beta-lactamase TEM (P62593 whole entry): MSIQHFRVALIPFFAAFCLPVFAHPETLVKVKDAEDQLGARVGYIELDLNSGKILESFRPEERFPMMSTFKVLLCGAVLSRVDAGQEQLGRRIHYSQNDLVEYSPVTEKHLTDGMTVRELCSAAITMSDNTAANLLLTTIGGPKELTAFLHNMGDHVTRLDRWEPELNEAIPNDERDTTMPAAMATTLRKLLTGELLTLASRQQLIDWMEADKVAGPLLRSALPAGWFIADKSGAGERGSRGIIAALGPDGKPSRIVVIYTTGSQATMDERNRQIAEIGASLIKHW

[26] = Inhibition of bacterial beta lactamase OXA-10 after 5 mins; set-up: species or system Bacteria
[27] = Inhibition of bacterial beta lactamase OXA-48 after 5 mins; set-up: species or system Bacteria
[28] = Inhibition of bacterial beta lactamase CTX-M-15 after 5 mins; set-up: species or system Bacteria
THP-1 = assay: Cytotoxicity against human THP1 cells after 72 hrs by SRB assay; assay type: functional, cell-based; conditions: THP-1, 72 h
[29] = tested on: Mycobacterium tuberculosis; assay: Antimycobacterial activity against Mycobacterium tuberculosis H37Rv after 14 days by broth micro-dilution method; assay type: functional; conditions: 336 h
Enterococcus faecium = assay: Antibacterial activity against Enterococcus faecium ATCC 568; assay type: functional
Streptococcus pneumoniae = assay: Antibacterial activity against Streptococcus pneumoniae ATCC 49619; assay type: functional
[30] = tested on: Mycobacterium tuberculosis; assay: […] activity against Mycobacterium tuberculosis; assay type: functional
[31] = tested on: Trypanosoma brucei brucei; assay: Anti-parasitic activity against trypomastigote form of Trypanosoma brucei brucei 427 after 24 hrs by resazurin dye-based assay; assay type: functional, organism-based; conditions: Trypanosoma brucei, 427, 24 h
Trichomonas vaginalis = assay: Antiprotozoal activity against Trichomonas vaginalis G3; assay type: functional, organism-based
[32] = Inhibition of bacterial beta lactamase OXA-24; set-up: species or system Bacteria

## O=C(O)CCc1cccc2c1B(O)OC2
Plasmodium falciparum [1]
  ED90: 0.34 mg/kg
Plasmodium falciparum [2]
  IC50: 32 nM
Plasmodium falciparum [3]
  IC50: 32 nM
Plasmodium berghei
  ED90: 0.57 mg/kg
Plasmodium falciparum [4]
  IC50: 32 nM
Plasmodium falciparum [5]
  IC50: 32 nM
Plasmodium falciparum [6]
  IC50: 32 nM
Plasmodium falciparum [7]
  IC50: 64 nM
Plasmodium falciparum [8]
  IC50: 32 nM
Plasmodium falciparum [9]
  IC50: 32 nM

## O=C(/C=C/c1ccc2c(c1)B(O)OC2)c1ccc(F)cc1
HCT-116
  IC50: 1400 to 2800 nM
SK-OV-3
  IC50: 1400 to 2800 nM
MDA-MB-231 [10]
  IC50: 1400 to 2800 nM

## O=C(O)/C=C/c1c(B(O)O)sc2ccccc12
[11]
  Ki: 40 to 90 nM
[12]
  Ki: 40 to 90 nM

## CC(C)OCCOc1nc(Oc2ccc3c(c2)COB3O)ccc1C#N
[13]
  IC50: 2.1 to 8.4 nM

## CN(C)CCOc1cc(NC(=O)c2ccc3c(c2)COB3O)ccc1Cl
Leishmania tropica [14]
  EC50: 2000 to 23000 nM
Leishmania aethiopica
  EC50: 2000 to 23000 nM
Leishmania panamensis
  EC50: 2000 to 23000 nM
Leishmania major
  EC50: 2000 to 23000 nM
Leishmania mexicana
  EC50: 2000 to 23000 nM
Leishmania tropica [15]
  EC50: 2000 to 23000 nM

## CSC[C@H](NC(=O)c1cc(Cl)ccc1Cl)C(=O)N[C@@H](CC(C)C)B1OCCNCCO1
[16]
  IC50: 4.6 nM
MDA-MB-231 [17]
  IC50: 8.4 nM

## O=C(Nc1ccc2c(c1)B(O)OC2)c1cn(-c2ccccn2)nn1
Leishmania tropica [14]
  EC50: 2000 to 23000 nM
Leishmania aethiopica
  EC50: 2000 to 23000 nM
Leishmania panamensis
  EC50: 2000 to 23000 nM
Leishmania major
  EC50: 2000 to 23000 nM
Leishmania mexicana
  EC50: 2000 to 23000 nM
Leishmania tropica [15]
  EC50: 2000 to 23000 nM

## CC(C)(C)OC(=O)c1cccc2cc(B(O)O)sc12
[18]
  IC50: 20200 to 27700 nM
[19]
  IC50: 20200 to 27700 nM
[20]
  IC50: 2300 to 4500 nM
[21]
  IC50: 2300 to 4500 nM

## CCc1cccc(Nc2ccn(CCC(=O)N[C@@H](CC(C)C)B(O)O)c(=O)c2)c1
[16]
  Ki: 17 nM

## CCOC(=O)/C(C#N)=C/c1ccc(B(O)O)cc1
GH3
  IC50: 140 nM

## OB1OC(N2CCOCC2)c2cc(F)ccc21 (stereo unspecified)
A2780
  IC50: 14800 nM

## Cc1cnn(B(n2cc(C)cn2)n2cc(C)cn2)c1
HepG2
  IC50: 1250 nM
Hep 3B2
  IC50: 15200 nM

## NCc1ccc2sc(B(O)O)cc2c1
[11]
  IC50: 400 nM

## Cc1c(Oc2nc(N)ns2)cc2c(c1C)[C@@H](CC(=O)O)OB2O
[22]
  IC50: 5 to 3900 nM
[23]
  IC50: 5 to 3900 nM
[24]
  IC50: 5 to 3900 nM
[25]
  IC50: 5 to 3900 nM
Beta-lactamase TEM
  IC50: 5 to 3900 nM
[26]
  IC50: 5 to 3900 nM
[27]
  IC50: 5 to 3900 nM
[28]
  IC50: 5 to 3900 nM

## Cc1ccc2c(c1-c1ccccc1C(N)=O)B(O)OC2
THP-1
  IC50: 1800 nM
[29]
  MIC99: 5 µM (≈ 1.34 µg/mL)

## CC[C@H]1OC(=O)[C@H](C)[C@@H](O[C@H]2C[C@@](C)(OC)[C@@H](OC(=O)NCCCNC(=O)CCc3cccc4c3B(O)OC4)[C@H](C)O2)[C@H](C)[C@@H](O[C@@H]2O[C@H](C)C[C@H](N(C)C)[C@H]2O)[C@](C)(O)C[C@@H](C)CN(C)[C@H](C)[C@H]2OC(=O)O[C@@]21C
Enterococcus faecium
  MIC: 0.13 µg/mL (≈ 0.122 µM)
Streptococcus pneumoniae
  MIC: 0.13 µg/mL (≈ 0.122 µM)

## O=C(/C=C/c1ccc2c(c1)OCO2)Nc1ccc2c(c1)B(O)OC2
[30]
  MIC99: 40.7 µM (≈ 13.2 µg/mL)
[31]
  IC50: 86 nM
Trichomonas vaginalis
  IC50: 22800 nM

## CC(C)(C)OC(=O)Nc1cccc2cc(B(O)O)sc12
[20]
  IC50: 2300 to 4500 nM
[21]
  IC50: 2300 to 4500 nM

## O=C(O)c1cccc2cc(B(O)O)sc12
[18]
  IC50: 20200 to 27700 nM
[32]
  IC50: 23000 nM
[19]
  IC50: 20200 to 27700 nM

## Nc1ccc2c(c1Br)B(O)OC2
[29]
  MIC99: 1.9 µM (≈ 0.433 µg/mL)
